Data taken from paper PMC6681697, “One-Step ^18F-Labeling and Preclinical Evaluation of Prostate-Specific Membrane Antigen Trifluoroborate Probes for Cancer Imaging” (Journal of Nuclear Medicine, 2019).
Like-named read-outs stand apart in the source and are kept apart here.

Assays:
[1] = biological target: T1, PSMA (Homo sapiens, UniProt Q04609); experiment: In vitro competition binding assay on LNCaP cells with ^18F-DCFPyL as radioligand
T1 construct: because it expresses PSMA endogenously and is commonly used to evaluate PSMA-targeting radiotracers; endogenous in cells; host or cells: LNCaP cells
Experimental: LNCaP cells were plated onto a 24-well poly-D-lysine coated plate for 48 h (400,000/well). […] Nonspecific binding was determined in the presence of 10 μM unlabeled DCFPyL. The assay mixtures were incubated for 1 h at 37°C with gentle agitation followed by 2 washes with cold HEPES buffered saline. A trypsin solution (0.25%, 400 μL) was then added to each well to harvest the cells. Radioactivity was measured by γ-counting, and Ki values were calculated using the “1 site—fit Ki” built-in model in Prism 7 (GraphPad).

[2] = Distribution coefficient (LogD7.4), shake flask method; format: physicochemical; details: n-octanol / phosphate buffer 0.1 M pH 7.4; n = 3
Experimental: LogD7.4 values were measured using the shake flask method. Briefly, an aliquot of ^18F-labeled tracer was added to a vial containing 2.5 mL of n-octanol and 2.5 mL of phosphate buffer (0.1 M, pH 7.4). The mixture was vortexed for 2 min and then centrifuged at 3,000g for 10 min. A sample of the n-octanol (0.1 mL) and buffer (0.1 mL) layers was counted using a γ-counter. Values of LogD7.4 were calculated using the following equation: LogD7.4 = log10 [(counts in n-octanol phase)/(counts in buffer phase)].

[3] = system: LNCaP xenografts; experiment: Ex vivo biodistribution and blocking studies in mice bearing LNCaP xenografts; details: for tumor uptake: LNCaP tumor
Experimental: (§1) Imaging and biodistribution experiments were performed using NODSCID IL2RγKO male mice. All experiments were conducted according to the guidelines established by the Canadian Council on Animal Care and approved by the Animal Ethics Committee of the University of British Columbia. Mice were anesthetized by inhalation with 2% isoflurane in oxygen and implanted subcutaneously with 1 × 10^7 LNCaP cells behind the left shoulder. The mice were imaged or used in biodistribution studies once the tumor reached 5–8 mm in diameter (5–6 wk).
For biodistribution and blocking studies, the mice were injected with 1–3 MBq of radiotracer. At 60 min, the mice were anesthetized with 2% isoflurane inhalation and euthanized by CO2 inhalation. Blood was withdrawn by cardiac puncture, and the organs and tissues of interest were collected, weighed, and counted using an automatic γ-counter (PerkinElmer). Uptake values were expressed as the percentage of the injected dose per gram of tissue (%ID/g).
A standard 1-way ANOVA was performed to determine whether statistically significant differences in tumor uptake occurred between radiotracers. Each radiotracer was compared with ^18F-DCFPyL using the Dunnett test (a many-to-one t test comparison). This analysis was also performed for kidney and blood activity and for tumor-to-blood and tumor-to-muscle ratios. Reported P values were adjusted for multiple comparisons. The analysis was performed using Prism 8 (GraphPad). […]
Statistical analyses were performed using GradPad prism 7. Multiple t tests were performed to compare biodistribution in unblocked and blocked mice, multiple comparisons were corrected using the Holm-Sidak method. The difference was considered statistically significant when p value was < 0.05.
Supplemental Table 1 – Complete biodistribution study for compounds [18F]1–3 […]
Tissue 1h 1h blocked 1h 1h blocked 1h 1h blocked
(%ID/g) n = 8 n = 4 n = 6 n = 4 n = 8 n = 5 […]
(1 picture or pasted object on this page, not shown here)

[4] = system: LNCaP xenografts; experiment: PET/CT imaging of LNCaP tumor-bearing mice; format: in vivo; details: 1 h after injection
Experimental: as §1
PET imaging experiments were conducted using an Inveon preclinical PET/CT scanner (Siemens). Compounds ^18F-1,2,3,5,7, and 8 were formulated in 10% ethanol/normal saline, whereas ^18F-4 and 6 were formulated in 10% ethanol/phosphate-buffered saline. […] For blocking controls, the mice were coinjected with DCFPyL (0.5 mg). After injection, the mice were allowed to recover and roam freely in their cage. After 50 min, the mice were sedated by 2% isoflurane inhalation and positioned in the scanner. A CT scan was performed first for localization and attenuation correction. This was followed by a 10-min static PET scan. The mice were kept warm by a heating pad during image acquisition. […]

[5] = 1 h after injection, 1-way ANOVA, Dunnett test
[6] = 1 h blocked (coinjection of DCFPyL 0.5 mg)

T1 sequence (Q04609 whole entry): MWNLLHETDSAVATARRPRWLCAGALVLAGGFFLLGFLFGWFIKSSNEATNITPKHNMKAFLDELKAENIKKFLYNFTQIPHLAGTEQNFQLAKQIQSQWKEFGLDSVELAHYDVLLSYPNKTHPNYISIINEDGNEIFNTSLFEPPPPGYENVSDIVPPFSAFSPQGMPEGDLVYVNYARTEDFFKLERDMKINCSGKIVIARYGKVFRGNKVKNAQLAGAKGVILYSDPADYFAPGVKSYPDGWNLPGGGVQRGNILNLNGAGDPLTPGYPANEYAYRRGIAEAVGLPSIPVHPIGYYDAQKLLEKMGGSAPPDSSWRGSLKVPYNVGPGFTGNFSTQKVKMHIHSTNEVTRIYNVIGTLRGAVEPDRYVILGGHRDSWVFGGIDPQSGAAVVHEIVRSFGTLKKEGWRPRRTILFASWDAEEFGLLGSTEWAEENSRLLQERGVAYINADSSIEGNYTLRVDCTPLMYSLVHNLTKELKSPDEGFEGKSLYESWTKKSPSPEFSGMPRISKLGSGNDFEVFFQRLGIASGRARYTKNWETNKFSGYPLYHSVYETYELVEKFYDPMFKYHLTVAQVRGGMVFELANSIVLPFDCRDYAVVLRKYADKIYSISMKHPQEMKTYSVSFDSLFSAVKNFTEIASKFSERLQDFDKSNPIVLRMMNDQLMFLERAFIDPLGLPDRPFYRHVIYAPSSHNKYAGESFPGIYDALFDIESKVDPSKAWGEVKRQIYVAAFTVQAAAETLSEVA

With `C[N+](C)(Cc1cn(CC(=O)NCCOCCOCCC(=O)N[C@@H](Cc2ccc3ccccc3c2)C(=O)NCCCC[C@H](NC(=O)N[C@@H](CCC(=O)O)C(=O)O)C(=O)O)nn1)C[B-](F)(F)F` [^18F-7] the Ki [1] was 16.5 ± 5.5 nM, the logD at 2 min [2] was -3.24 ± 0.03 and the “T/B (tumor-to-blood ratio)” value ([3]; 1 h after injection, unblocked) was 54.57 ± 38.49. The “T/K (tumor-to-kidney ratio)” value ([3]; 1 h after injection, unblocked) was 0.28 ± 0.22, the “T/M (tumor-to-muscle ratio)” value ([3]; 1 h after injection, unblocked) was 117.13 ± 52.06 and the adrenal uptake ([3]; 1 h after injection, unblocked) was 0.81 ± 0.25 %ID/g. It also gave a blood uptake ([3]; 1 h after injection, unblocked) of 0.13 ± 0.08 %ID/g, a bone uptake ([3]; 1 h after injection, unblocked) of 0.10 ± 0.07 %ID/g and a brain uptake ([3]; 1 h after injection, unblocked) of 0.01 ± 0.01 %ID/g. The fat uptake ([3]; 1 h after injection, unblocked) was 0.27 ± 0.14 %ID/g, the heart uptake ([3]; 1 h after injection, unblocked) was 0.07 ± 0.02 %ID/g and the intestine uptake ([3]; 1 h after injection, unblocked) was 22.24 ± 2.79 %ID/g. The kidney uptake ([3]; 1 h after injection, unblocked) was 20.35 ± 9.85 %ID/g, the liver uptake ([3]; 1 h after injection, unblocked) was 0.83 ± 0.34 %ID/g and the lung uptake ([3]; 1 h after injection, unblocked) was 0.40 ± 0.13 %ID/g. For the same molecule, the muscle uptake ([3]; 1 h after injection, unblocked) was 0.05 ± 0.01 %ID/g, the pancreas uptake ([3]; 1 h after injection, unblocked) was 0.13 ± 0.11 %ID/g and the spleen uptake ([3]; 1 h after injection, unblocked) was 0.75 ± 0.36 %ID/g. For the same molecule, the stomach uptake ([3]; 1 h after injection, unblocked) was 0.21 ± 0.12 %ID/g, the testes uptake ([3]; 1 h after injection, unblocked) was 0.18 ± 0.05 %ID/g and the “kidney accumulation compared with ^18F-DCFPyL” value [3, 5] was “lower kidney accumulation”. The “tumor uptake compared with ^18F-DCFPyL” value [3, 5] was “lower tumor uptake than ^18F-DCFPyL”, the “tumor-to-blood and tumor-to-muscle ratios compared with ^18F-DCFPyL” value [3, 5] was “higher ratios” and the “T/B (tumor-to-blood ratio)” value [3, 6] was 1.56 ± 0.87. For the same molecule, the “T/K (tumor-to-kidney ratio)” value [3, 6] was 0.28 ± 0.12, the “T/M (tumor-to-muscle ratio)” value [3, 6] was 3.62 ± 3.62 and the adrenal uptake [3, 6] was 0.06 ± 0.09 %ID/g. The blood uptake [3, 6] was 0.85 ± 1.37 %ID/g, the bone uptake [3, 6] was 0.16 ± 0.25 %ID/g and the brain uptake [3, 6] was 0.01 ± 0.01 %ID/g. It also gave a fat uptake [3, 6] of 0.02 ± 0.02 %ID/g, a heart uptake [3, 6] of 0.04 ± 0.01 %ID/g and an intestine uptake [3, 6] of 26.68 ± 9.98 %ID/g. For the same molecule, the kidney uptake [3, 6] was 0.56 ± 0.18 %ID/g, the liver uptake [3, 6] was 0.73 ± 0.21 %ID/g and the lung uptake [3, 6] was 0.12 ± 0.04 %ID/g. It also gave a muscle uptake [3, 6] of 0.24 ± 0.37 %ID/g, a pancreas uptake [3, 6] of 0.06 ± 0.06 %ID/g and a spleen uptake [3, 6] of 0.15 ± 0.16 %ID/g. For the same molecule, the stomach uptake [3, 6] was 1.55 ± 2.10 %ID/g, the testes uptake [3, 6] was 0.04 ± 0.01 %ID/g and the tumor uptake ([3]; 1 h after injection, unblocked, listed as 7) was 5.1 ± 1.1 %ID/g. The tumor uptake ([3]; 1 h after injection, unblocked, listed as [18F]7) was 5.09 ± 1.10 %ID/g and the tumor uptake [3, 6] was 0.15 ± 0.06 %ID/g.

For `C[N+](C)(Cc1cn(CC(=O)N[C@@H](CCC(=O)O)C(=O)NCCCC[C@H](NC(=O)[C@H](CCC(=O)O)NC(=O)Cn2cc(C[N+](C)(C)C[B-](F)(F)F)nn2)C(=O)NC[C@H]2CC[C@H](C(=O)N[C@@H](Cc3ccc4ccccc4c3)C(=O)NCCCC[C@H](NC(=O)N[C@@H](CCC(=O)O)C(=O)O)C(=O)O)CC2)nn1)C[B-](F)(F)F` [^18F-8], the Ki ([1]; LNCaP cells, 0.1 nM ^18F-DCFPyL radioligand, 1 h at 37°C, n = 3) was 0.22 ± 0.01 nM, the LogD7.4 [2] was −3.58 ± 0.36 and the “T/B (tumor-to-blood ratio)” value ([3]; 1 h after injection, unblocked) was 30.95 ± 7.76. For the same molecule, the “T/K (tumor-to-kidney ratio)” value ([3]; 1 h after injection, unblocked) was 0.14 ± 0.07, the “T/M (tumor-to-muscle ratio)” value ([3]; 1 h after injection, unblocked) was 67.23 ± 25.93 and the adrenal uptake ([3]; 1 h after injection, unblocked) was 7.72 ± 2.70 %ID/g. The blood uptake ([3]; 1 h after injection, unblocked) was 0.56 ± 0.11 %ID/g, the bone uptake ([3]; 1 h after injection, unblocked) was 0.25 ± 0.10 %ID/g and the brain uptake ([3]; 1 h after injection, unblocked) was 0.02 ± 0.00 %ID/g. For the same molecule, the fat uptake ([3]; 1 h after injection, unblocked) was 0.80 ± 0.28 %ID/g, the heart uptake ([3]; 1 h after injection, unblocked) was 0.28 ± 0.07 %ID/g and the intestine uptake ([3]; 1 h after injection, unblocked) was 0.32 ± 0.06 %ID/g. The kidney uptake ([3]; 1 h after injection, unblocked) was 143.85 ± 61.73 %ID/g, the liver uptake ([3]; 1 h after injection, unblocked) was 0.20 ± 0.05 %ID/g and the lung uptake ([3]; 1 h after injection, unblocked) was 1.97 ± 0.34 %ID/g. For the same molecule, the muscle uptake ([3]; 1 h after injection, unblocked) was 0.27 ± 0.06 %ID/g, the pancreas uptake ([3]; 1 h after injection, unblocked) was 0.46 ± 0.15 %ID/g and the spleen uptake ([3]; 1 h after injection, unblocked) was 6.47 ± 2.17 %ID/g. For the same molecule, the stomach uptake ([3]; 1 h after injection, unblocked) was 0.11 ± 0.03 %ID/g, the testes uptake ([3]; 1 h after injection, unblocked) was 0.57 ± 0.12 %ID/g and the “tumor uptake compared with ^18F-DCFPyL” value [3, 5] was “higher uptake”. For the same molecule, the “T/B (tumor-to-blood ratio)” value [3, 6] was 0.92 ± 0.24, the “T/K (tumor-to-kidney ratio)” value [3, 6] was 0.17 ± 0.04 and the “T/M (tumor-to-muscle ratio)” value [3, 6] was 3.07 ± 0.92. For the same molecule, the adrenal uptake [3, 6] was 0.14 ± 0.03 %ID/g, the blood uptake [3, 6] was 0.39 ± 0.07 %ID/g and the bone uptake [3, 6] was 0.15 ± 0.02 %ID/g. For the same molecule, the brain uptake [3, 6] was 0.01 ± 0.00 %ID/g, the fat uptake [3, 6] was 0.06 ± 0.02 %ID/g and the heart uptake [3, 6] was 0.13 ± 0.01 %ID/g. It also gave an intestine uptake [3, 6] of 0.26 ± 0.05 %ID/g, a kidney uptake [3, 6] of 2.19 ± 0.44 %ID/g and a liver uptake [3, 6] of 0.16 ± 0.04 %ID/g. For the same molecule, the lung uptake [3, 6] was 0.33 ± 0.06 %ID/g, the muscle uptake [3, 6] was 0.13 ± 0.06 %ID/g and the pancreas uptake [3, 6] was 0.09 ± 0.03 %ID/g. The spleen uptake [3, 6] was 0.12 ± 0.04 %ID/g, the stomach uptake [3, 6] was 0.09 ± 0.04 %ID/g and the testes uptake [3, 6] was 0.18 ± 0.09 %ID/g. It also gave a tumor uptake ([3]; 1 h after injection, unblocked, listed as 8) of 16.7 ± 2.7 %ID/g, a tumor uptake ([3]; 1 h after injection, unblocked, listed as [18F]8) of 16.66 ± 2.74 %ID/g and a tumor uptake [3, 6] of 0.35 ± 0.03 %ID/g. For the same molecule, the “accumulation in the liver” value ([4]; PET/CT) was “no significant accumulation in the liver” and the “clearance / excretion pathway” value ([4]; imaging and biodistribution) was “no hepatobiliary excretion”.
